Measured values from ChEMBL document CHEMBL2074510, “Defective ATP-dependent bile canalicular transport of organic anions in mutant (TR-) rats with conjugated hyperbilirubinemia” (Proc Natl Acad Sci U S A, 1990).

Molecular target: ATP-binding cassette sub-family C member 2 (Rattus norvegicus, UniProt Q63120)
Assay: TP_TRANSPORTER: uptake in bile canalicular membrane vesicles from Wistar/TR- rat
Format: functional, cell membranes, Bile canalicular membrane vesicle

Chain of ATP-binding cassette sub-family C member 2 (Q63120 whole entry): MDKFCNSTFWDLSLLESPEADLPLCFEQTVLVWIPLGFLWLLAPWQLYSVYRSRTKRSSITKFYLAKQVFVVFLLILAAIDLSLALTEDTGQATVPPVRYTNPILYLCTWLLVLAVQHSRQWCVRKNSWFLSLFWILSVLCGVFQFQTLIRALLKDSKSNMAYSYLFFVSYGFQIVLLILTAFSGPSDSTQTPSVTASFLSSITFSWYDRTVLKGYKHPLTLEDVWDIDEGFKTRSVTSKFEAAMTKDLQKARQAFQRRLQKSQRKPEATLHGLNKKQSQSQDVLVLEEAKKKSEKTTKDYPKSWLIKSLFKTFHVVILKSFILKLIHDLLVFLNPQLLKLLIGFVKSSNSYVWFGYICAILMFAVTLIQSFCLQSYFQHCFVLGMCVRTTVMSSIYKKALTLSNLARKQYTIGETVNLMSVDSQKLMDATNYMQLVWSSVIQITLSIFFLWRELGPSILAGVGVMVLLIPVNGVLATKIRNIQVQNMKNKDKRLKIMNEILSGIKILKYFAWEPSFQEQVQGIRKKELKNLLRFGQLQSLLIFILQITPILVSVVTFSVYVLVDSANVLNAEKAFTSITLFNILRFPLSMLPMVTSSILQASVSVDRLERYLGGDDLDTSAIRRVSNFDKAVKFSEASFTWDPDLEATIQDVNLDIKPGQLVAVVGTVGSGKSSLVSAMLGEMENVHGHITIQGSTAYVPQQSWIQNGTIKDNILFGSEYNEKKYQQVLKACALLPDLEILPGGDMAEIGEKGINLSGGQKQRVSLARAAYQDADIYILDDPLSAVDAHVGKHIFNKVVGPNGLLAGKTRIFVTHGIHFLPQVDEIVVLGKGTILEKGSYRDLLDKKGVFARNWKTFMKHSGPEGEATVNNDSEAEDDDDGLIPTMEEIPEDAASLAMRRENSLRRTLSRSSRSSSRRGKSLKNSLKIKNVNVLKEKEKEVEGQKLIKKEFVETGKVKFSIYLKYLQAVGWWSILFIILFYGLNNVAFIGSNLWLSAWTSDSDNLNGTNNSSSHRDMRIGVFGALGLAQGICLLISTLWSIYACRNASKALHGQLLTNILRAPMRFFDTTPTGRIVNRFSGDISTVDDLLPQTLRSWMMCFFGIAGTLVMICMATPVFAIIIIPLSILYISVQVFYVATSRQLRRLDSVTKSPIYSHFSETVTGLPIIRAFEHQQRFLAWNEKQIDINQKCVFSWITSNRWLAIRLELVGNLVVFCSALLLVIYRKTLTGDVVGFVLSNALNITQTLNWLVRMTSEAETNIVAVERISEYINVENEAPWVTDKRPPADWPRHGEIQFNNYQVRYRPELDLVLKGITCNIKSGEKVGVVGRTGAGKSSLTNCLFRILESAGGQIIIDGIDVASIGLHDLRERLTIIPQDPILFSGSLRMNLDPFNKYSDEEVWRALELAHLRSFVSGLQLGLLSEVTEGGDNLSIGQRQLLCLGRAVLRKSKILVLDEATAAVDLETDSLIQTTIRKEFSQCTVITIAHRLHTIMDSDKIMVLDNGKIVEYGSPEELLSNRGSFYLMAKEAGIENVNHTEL

Structure (SMILES): N[C@@H](CCC(=O)N[C@@H](CSc1c(Br)c(Br)c2c(c1Br)C(=O)OC2(c1ccc(O)c(S(=O)(=O)O)c1)c1ccc(O)c(S(=O)(=O)O)c1)C(=O)NCC(=O)O)C(=O)O
- Activity: substrate [+]
